{"source": "paper PMC3119665", "about": "“A New Drug Design Targeting the Adenosinergic System for Huntington's Disease” (PLoS ONE, 2011)", "assay_in_all_cases": "Radioligand binding panel (Table S1)", "settings_in_all_cases": "10 μM T1-11, n 2", "key": {"GABAA, Non-Selective": {"tested_on": "GABAA, Non-Selective", "design": "species or system rat"}, "Adrenergic α 2C": {"target": "T1, Adrenergic α 2C (Homo sapiens, UniProt P18825)", "T1 construct": "purchased MDS Pharma Services Taiwan", "T1 sequence (P18825 whole entry)": "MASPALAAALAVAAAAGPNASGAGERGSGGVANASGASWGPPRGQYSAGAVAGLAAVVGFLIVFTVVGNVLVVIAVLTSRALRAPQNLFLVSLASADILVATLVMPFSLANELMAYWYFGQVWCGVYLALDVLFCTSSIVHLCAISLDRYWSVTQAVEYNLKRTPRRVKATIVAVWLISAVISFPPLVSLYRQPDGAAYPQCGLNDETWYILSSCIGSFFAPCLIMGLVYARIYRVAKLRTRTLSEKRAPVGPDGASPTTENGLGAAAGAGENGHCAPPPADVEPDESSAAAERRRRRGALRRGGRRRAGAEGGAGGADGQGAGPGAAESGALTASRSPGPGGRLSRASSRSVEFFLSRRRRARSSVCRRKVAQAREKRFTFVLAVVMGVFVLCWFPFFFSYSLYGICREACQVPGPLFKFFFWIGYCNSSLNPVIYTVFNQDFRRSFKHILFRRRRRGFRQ"}, "Sigma, Non-Selective": {"tested_on": "Sigma, Non-Selective", "design": "species or system guinea pig"}, "Dopamine D1": {"target": "T2, Dopamine D1 (Homo sapiens, UniProt P21728)", "T2 construct": "purchased MDS Pharma Services Taiwan", "T2 sequence (P21728 whole entry)": "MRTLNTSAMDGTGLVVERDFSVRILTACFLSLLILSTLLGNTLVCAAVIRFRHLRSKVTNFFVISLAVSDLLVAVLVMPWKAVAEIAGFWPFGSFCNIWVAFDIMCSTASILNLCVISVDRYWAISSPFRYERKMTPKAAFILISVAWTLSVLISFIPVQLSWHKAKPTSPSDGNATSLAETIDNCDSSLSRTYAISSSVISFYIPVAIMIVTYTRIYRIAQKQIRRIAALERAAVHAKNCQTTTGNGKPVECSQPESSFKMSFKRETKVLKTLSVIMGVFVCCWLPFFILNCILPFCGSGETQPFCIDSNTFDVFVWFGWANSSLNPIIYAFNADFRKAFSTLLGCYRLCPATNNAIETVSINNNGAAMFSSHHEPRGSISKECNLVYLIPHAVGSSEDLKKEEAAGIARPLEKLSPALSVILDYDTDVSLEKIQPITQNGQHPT"}, "Endothelin ETA": {"target": "T3, Endothelin ETA (Homo sapiens, UniProt P25101)", "T3 construct": "purchased MDS Pharma Services Taiwan", "T3 sequence (P25101 21-427)": "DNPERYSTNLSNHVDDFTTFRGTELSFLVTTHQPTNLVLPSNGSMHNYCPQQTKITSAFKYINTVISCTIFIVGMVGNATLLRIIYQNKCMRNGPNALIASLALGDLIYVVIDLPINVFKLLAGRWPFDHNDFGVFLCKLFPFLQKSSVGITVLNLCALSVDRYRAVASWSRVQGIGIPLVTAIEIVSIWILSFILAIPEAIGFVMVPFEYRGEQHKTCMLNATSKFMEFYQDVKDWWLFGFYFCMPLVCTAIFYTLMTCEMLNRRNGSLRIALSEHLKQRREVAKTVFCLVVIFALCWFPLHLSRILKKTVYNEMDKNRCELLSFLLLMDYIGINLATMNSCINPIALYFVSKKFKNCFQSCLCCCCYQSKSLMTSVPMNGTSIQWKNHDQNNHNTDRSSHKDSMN"}, "Adrenergic α 2A": {"target": "T4, Adrenergic α 2A (Homo sapiens, UniProt P08913)", "T4 construct": "purchased MDS Pharma Services Taiwan"}, "Vasopressin V1A": {"target": "T5, Vasopressin V1A (Homo sapiens, UniProt P37288)", "T5 construct": "purchased MDS Pharma Services Taiwan", "T5 sequence (P37288 whole entry)": "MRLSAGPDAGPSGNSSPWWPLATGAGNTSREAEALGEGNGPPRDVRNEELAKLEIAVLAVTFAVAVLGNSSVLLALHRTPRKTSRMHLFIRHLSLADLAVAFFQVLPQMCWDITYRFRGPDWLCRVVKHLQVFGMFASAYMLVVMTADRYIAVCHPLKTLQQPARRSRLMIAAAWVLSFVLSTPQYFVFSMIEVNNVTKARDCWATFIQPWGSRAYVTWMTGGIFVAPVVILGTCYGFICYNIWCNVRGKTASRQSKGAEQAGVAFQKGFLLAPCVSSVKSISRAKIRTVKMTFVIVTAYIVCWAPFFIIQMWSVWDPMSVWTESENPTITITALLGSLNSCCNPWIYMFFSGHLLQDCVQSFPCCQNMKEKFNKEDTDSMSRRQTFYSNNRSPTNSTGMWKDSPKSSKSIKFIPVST"}, "Muscarinic M3": {"target": "T6, Muscarinic M3 (Homo sapiens, UniProt P20309)", "T6 construct": "purchased MDS Pharma Services Taiwan"}, "[1]": {"tested_on": "GABAA, Chloride Channel, TBOB", "design": "species or system rat"}, "Phosphodiesterase PDE4": {"tested_on": "Phosphodiesterase PDE4", "design": "species or system human"}, "Melanocortin MC1": {"target": "T7, Melanocortin MC1 (Homo sapiens, UniProt Q01726)", "T7 construct": "purchased MDS Pharma Services Taiwan"}, "Histamine H1": {"target": "T8, Histamine H1 (Homo sapiens, UniProt P35367)", "T8 construct": "purchased MDS Pharma Services Taiwan", "T8 sequence (P35367 whole entry)": "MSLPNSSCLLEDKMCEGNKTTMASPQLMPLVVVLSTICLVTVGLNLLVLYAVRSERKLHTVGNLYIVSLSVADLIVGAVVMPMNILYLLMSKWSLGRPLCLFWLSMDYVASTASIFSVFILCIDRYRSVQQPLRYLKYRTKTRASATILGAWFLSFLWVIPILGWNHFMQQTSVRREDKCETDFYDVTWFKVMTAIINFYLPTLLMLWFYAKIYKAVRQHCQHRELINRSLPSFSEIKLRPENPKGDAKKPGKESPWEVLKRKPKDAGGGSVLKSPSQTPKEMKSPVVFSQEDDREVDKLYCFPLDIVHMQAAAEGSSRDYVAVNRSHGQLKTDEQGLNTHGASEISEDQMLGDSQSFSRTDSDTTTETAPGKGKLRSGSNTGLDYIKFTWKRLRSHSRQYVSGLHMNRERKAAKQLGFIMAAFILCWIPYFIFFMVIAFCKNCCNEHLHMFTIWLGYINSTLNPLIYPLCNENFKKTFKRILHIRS"}, "Urotensin II": {"target": "T9, Urotensin II (Homo sapiens, UniProt Q9UKP6)", "T9 construct": "purchased MDS Pharma Services Taiwan", "T9 sequence (Q9UKP6 whole entry)": "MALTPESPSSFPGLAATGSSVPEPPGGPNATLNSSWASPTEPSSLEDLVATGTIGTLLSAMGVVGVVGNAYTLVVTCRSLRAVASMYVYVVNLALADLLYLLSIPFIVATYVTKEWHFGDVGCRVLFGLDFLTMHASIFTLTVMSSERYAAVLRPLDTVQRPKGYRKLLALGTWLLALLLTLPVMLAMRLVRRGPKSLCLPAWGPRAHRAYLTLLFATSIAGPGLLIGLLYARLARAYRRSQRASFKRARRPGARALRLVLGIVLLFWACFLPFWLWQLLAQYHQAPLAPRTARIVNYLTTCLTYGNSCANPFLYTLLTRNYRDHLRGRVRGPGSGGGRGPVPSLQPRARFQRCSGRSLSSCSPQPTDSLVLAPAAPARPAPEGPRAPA"}, "Dopamine D4.2": {"target": "T10, Dopamine D4.2 (Homo sapiens, UniProt P21917, DEL265-296)", "T10 construct": "purchased MDS Pharma Services Taiwan", "T10 sequence (P21917 with tags, fused parts or gaps DEL265-296)": "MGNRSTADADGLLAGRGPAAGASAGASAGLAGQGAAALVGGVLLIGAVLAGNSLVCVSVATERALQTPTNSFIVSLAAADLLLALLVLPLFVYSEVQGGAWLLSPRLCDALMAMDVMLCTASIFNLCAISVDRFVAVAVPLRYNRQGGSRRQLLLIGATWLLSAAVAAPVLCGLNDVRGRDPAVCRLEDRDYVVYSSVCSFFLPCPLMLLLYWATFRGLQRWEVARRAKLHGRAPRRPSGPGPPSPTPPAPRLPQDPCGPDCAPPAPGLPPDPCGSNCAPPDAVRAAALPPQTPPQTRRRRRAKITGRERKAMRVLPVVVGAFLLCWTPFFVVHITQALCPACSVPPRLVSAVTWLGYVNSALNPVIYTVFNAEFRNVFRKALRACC"}, "Colchicine": {"tested_on": "Colchicine", "design": "species or system rat", "procedure": "Radoligand binding assays were performed by MDS Pharma Services Taiwan (Taipei, Taiwan) using standard binding protocols. For the binding assay of the A2AR [67], membrane proteins collected from HEK293 cells overexpressing the human A2AR were incubated in reaction buffer [50 mM Tris-HCl (pH 7.4), 10 mM MgCl2, 1 mM EDTA, and 2 U/mL adenosine deaminase] containing ^3H-CGS21680 (50 nM) for 90 min at 25°C. Nonspecific binding was assessed in the presence of 50 µM adenosine- 5′-N-ethylcarboxamide. […] Nonspecific binding was assessed in the presence of 1 µM IB-MECA (Tocris Bioscience, Ellisville, MS, USA)."}, "Orexin OX 1": {"target": "T11, Orexin OX 1 (Homo sapiens, UniProt O43613)", "T11 construct": "purchased MDS Pharma Services Taiwan"}, "[2]": {"tested_on": "Serotonin (5-Hydroxytryptamine) 5-HT1, Non-Selective", "design": "species or system rat"}, "Imidazoline I2, Central": {"tested_on": "Imidazoline I2, Central", "design": "species or system rat"}, "[3]": {"tested_on": "Atrial Natriuretic Factor (ANF)", "design": "species or system guinea pig"}, "Progesterone": {"tested_on": "Progesterone", "design": "species or system bovine"}, "Opiate μ (OP3, MOP)": {"target": "T12, Opiate μ (OP3, MOP) (Homo sapiens, UniProt P35372)", "T12 construct": "purchased MDS Pharma Services Taiwan", "T12 sequence (P35372 whole entry)": "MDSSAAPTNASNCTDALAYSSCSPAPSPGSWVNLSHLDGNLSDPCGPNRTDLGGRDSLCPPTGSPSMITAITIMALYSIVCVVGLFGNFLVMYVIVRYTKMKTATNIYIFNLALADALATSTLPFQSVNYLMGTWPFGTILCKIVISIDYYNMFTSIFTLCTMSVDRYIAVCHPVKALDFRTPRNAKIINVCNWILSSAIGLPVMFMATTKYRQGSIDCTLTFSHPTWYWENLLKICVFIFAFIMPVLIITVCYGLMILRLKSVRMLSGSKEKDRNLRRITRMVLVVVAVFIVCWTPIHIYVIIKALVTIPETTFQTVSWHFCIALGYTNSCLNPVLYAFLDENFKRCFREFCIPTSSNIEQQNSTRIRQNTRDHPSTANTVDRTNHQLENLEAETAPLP"}, "Phosphodiesterase PDE1": {"tested_on": "Phosphodiesterase PDE1", "design": "species or system bovine"}, "Angiotensin AT1": {"target": "T13, Angiotensin AT1 (Homo sapiens, UniProt P30556)", "T13 construct": "purchased MDS Pharma Services Taiwan", "T13 sequence (P30556 whole entry)": "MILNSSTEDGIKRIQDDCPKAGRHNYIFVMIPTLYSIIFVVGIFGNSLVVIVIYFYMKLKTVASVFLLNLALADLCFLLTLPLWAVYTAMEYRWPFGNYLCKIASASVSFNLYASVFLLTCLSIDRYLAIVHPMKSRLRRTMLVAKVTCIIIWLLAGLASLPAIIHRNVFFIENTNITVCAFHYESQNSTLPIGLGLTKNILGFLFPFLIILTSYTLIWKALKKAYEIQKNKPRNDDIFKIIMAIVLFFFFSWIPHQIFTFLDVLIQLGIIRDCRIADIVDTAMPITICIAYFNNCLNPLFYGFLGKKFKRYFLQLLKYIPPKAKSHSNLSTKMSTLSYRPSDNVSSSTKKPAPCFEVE"}, "Phosphodiesterase PDE6": {"tested_on": "Phosphodiesterase PDE6", "design": "species or system human"}, "[4]": {"tested_on": "Transforming Growth Factor-β (TGF-β)", "design": "species or system mouse"}, "Potassium Channel [SKCA]": {"tested_on": "Potassium Channel [SKCA]", "design": "species or system rat"}, "Bombesin, Non-Selective": {"tested_on": "Bombesin, Non-Selective", "design": "species or system rat"}, "Melanocortin MC3": {"target": "T14, Melanocortin MC3 (Homo sapiens, UniProt P41968)", "T14 construct": "purchased MDS Pharma Services Taiwan"}, "Leukotriene, BLT (LTB4)": {"target": "T15, Leukotriene, BLT (LTB4) (Homo sapiens, UniProt Q15722)", "T15 construct": "purchased MDS Pharma Services Taiwan", "T15 sequence (Q15722 whole entry)": "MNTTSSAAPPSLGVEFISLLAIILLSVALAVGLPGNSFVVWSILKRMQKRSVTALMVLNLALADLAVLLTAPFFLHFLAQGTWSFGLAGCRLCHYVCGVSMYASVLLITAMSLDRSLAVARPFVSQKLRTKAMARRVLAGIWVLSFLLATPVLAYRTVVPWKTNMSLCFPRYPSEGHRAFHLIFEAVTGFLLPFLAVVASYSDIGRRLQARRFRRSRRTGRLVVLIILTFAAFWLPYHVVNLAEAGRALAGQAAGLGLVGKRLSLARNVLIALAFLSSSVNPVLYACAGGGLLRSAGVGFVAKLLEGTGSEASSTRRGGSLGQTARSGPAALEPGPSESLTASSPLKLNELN"}, "[5]": {"tested_on": "Neurotensin, Non-Selective", "design": "species or system mouse"}, "Interleukin IL-6": {"target": "T16, Interleukin IL-6 (Homo sapiens, UniProt P08887)", "T16 construct": "purchased MDS Pharma Services Taiwan"}, "Transporter, GABA": {"target": "T17, Transporter, GABA (Rattus norvegicus, UniProt P23978)", "T17 construct": "purchased MDS Pharma Services Taiwan"}, "Chemokine CX3CR1": {"target": "T18, Chemokine CX3CR1 (Homo sapiens, UniProt P49238)", "T18 construct": "purchased MDS Pharma Services Taiwan"}, "Adrenergic α 1B": {"target": "T19, Adrenergic α 1B (Rattus norvegicus, UniProt P15823)", "T19 construct": "purchased MDS Pharma Services Taiwan"}, "Chemokine CCR4": {"target": "T20, Chemokine CCR4 (Homo sapiens, UniProt P51679)", "T20 construct": "purchased MDS Pharma Services Taiwan", "T20 sequence (P51679 whole entry)": "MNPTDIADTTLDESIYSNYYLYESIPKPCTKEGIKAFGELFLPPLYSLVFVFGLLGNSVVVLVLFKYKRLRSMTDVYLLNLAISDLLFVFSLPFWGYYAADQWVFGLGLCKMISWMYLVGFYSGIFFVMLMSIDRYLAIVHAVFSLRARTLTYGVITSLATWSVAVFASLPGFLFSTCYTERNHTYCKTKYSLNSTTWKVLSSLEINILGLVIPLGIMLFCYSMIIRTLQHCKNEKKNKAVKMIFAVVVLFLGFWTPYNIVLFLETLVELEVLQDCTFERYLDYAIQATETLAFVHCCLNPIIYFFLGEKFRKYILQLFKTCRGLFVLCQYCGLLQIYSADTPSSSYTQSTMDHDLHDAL"}, "Melatonin MT1": {"target": "T21, Melatonin MT1 (Homo sapiens, UniProt P48039)", "T21 construct": "purchased MDS Pharma Services Taiwan", "T21 sequence (P48039 whole entry)": "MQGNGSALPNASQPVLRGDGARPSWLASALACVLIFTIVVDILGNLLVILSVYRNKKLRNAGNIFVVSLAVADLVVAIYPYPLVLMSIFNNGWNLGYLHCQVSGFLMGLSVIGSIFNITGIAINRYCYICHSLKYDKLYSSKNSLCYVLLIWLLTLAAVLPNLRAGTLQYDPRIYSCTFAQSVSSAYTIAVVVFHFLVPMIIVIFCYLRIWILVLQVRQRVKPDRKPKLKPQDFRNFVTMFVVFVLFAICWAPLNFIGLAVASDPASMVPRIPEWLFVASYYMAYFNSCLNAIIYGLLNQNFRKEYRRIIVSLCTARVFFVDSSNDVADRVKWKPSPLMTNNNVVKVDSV"}, "Tachykinin NK1": {"target": "T22, Tachykinin NK1 (Homo sapiens, UniProt P25103)", "T22 construct": "purchased MDS Pharma Services Taiwan"}}}
{"smiles": "OC[C@H]1O[C@@H](n2cnc3c(NCc4ccc(O)cc4)ncnc32)[C@H](O)[C@@H]1O", "note": "[T1-11, N ^6-(4-hydroxybenzyl)adenine riboside]", "values": [{"measurement": "% Inhibition", "setting": "GABAA, Non-Selective", "result": 5, "unit": "%"}, {"measurement": "inhibition at 10 µM", "setting": "Adrenergic α 2C", "result": 10, "unit": "%"}, {"measurement": "% Inhibition", "setting": "Sigma, Non-Selective", "result": -3, "unit": "%"}, {"measurement": "inhibition at 10 µM", "setting": "Dopamine D1", "result": -13, "unit": "%"}, {"measurement": "inhibition at 10 µM", "setting": "Endothelin ETA", "result": 3, "unit": "%"}, {"measurement": "inhibition at 10 µM", "setting": "Adrenergic α 2A", "result": -8, "unit": "%"}, {"measurement": "inhibition at 10 µM", "setting": "Vasopressin V1A", "result": 0, "unit": "%"}, {"measurement": "inhibition at 10 µM", "setting": "Muscarinic M3", "result": -6, "unit": "%"}, {"measurement": "% Inhibition", "setting": "[1]", "result": -3, "unit": "%"}, {"measurement": "% Inhibition", "setting": "Phosphodiesterase PDE4", "result": 0, "unit": "%"}, {"measurement": "inhibition at 10 µM", "setting": "Melanocortin MC1", "result": 3, "unit": "%"}, {"measurement": "inhibition at 10 µM", "setting": "Histamine H1", "result": 1, "unit": "%"}, {"measurement": "inhibition at 10 µM", "setting": "Urotensin II", "result": 6, "unit": "%"}, {"measurement": "inhibition at 10 µM", "setting": "Dopamine D4.2", "result": 3, "unit": "%"}, {"measurement": "% Inhibition", "setting": "Colchicine", "result": -2, "unit": "%"}, {"measurement": "inhibition at 10 µM", "setting": "Orexin OX 1", "result": -13, "unit": "%"}, {"measurement": "% Inhibition", "setting": "[2]", "result": 10, "unit": "%"}, {"measurement": "% Inhibition", "setting": "Imidazoline I2, Central", "result": 3, "unit": "%"}, {"measurement": "% Inhibition", "setting": "[3]", "result": 5, "unit": "%"}, {"measurement": "% Inhibition", "setting": "Progesterone", "result": 9, "unit": "%"}, {"measurement": "inhibition at 10 µM", "setting": "Opiate μ (OP3, MOP)", "result": 5, "unit": "%"}, {"measurement": "% Inhibition", "setting": "Phosphodiesterase PDE1", "result": 26, "unit": "%"}, {"measurement": "inhibition at 10 µM", "setting": "Angiotensin AT1", "result": -5, "unit": "%"}, {"measurement": "% Inhibition", "setting": "Phosphodiesterase PDE6", "result": 21, "unit": "%"}, {"measurement": "% Inhibition", "setting": "[4]", "result": -1, "unit": "%"}, {"measurement": "% Inhibition", "setting": "Potassium Channel [SKCA]", "result": 1, "unit": "%"}, {"measurement": "% Inhibition", "setting": "Bombesin, Non-Selective", "result": 6, "unit": "%"}, {"measurement": "inhibition at 10 µM", "setting": "Melanocortin MC3", "result": 3, "unit": "%"}, {"measurement": "inhibition at 10 µM", "setting": "Leukotriene, BLT (LTB4)", "result": -6, "unit": "%"}, {"measurement": "% Inhibition", "setting": "[5]", "result": 15, "unit": "%"}, {"measurement": "inhibition at 10 µM", "setting": "Interleukin IL-6", "result": -3, "unit": "%"}, {"measurement": "inhibition at 10 µM", "setting": "Transporter, GABA", "result": 8, "unit": "%"}, {"measurement": "inhibition at 10 µM", "setting": "Chemokine CX3CR1", "result": -1, "unit": "%"}, {"measurement": "inhibition at 10 µM", "setting": "Adrenergic α 1B", "result": 3, "unit": "%"}, {"measurement": "inhibition at 10 µM", "setting": "Chemokine CCR4", "result": 5, "unit": "%"}, {"measurement": "inhibition at 10 µM", "setting": "Melatonin MT1", "result": -4, "unit": "%"}, {"measurement": "inhibition at 10 µM", "setting": "Tachykinin NK1", "result": 3, "unit": "%"}]}
